Tested on: 521955-158-R2-J5-PDC complex spheroid viability
Experiment: Anticancer human tumor 521955-158-R2-J5-PDC patient-derived pancreatic carcinoma cell line growth inhibition
Conditions: for IC50: curve of first compound; for viability, T/C: stronger effect = lower value
Summary of the method: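 Complex spheroids of tumor cells with HUVEC and human MSCs, exposed to iadademstat combined with other agents. Each agent tested in half-log steps from near clinical Cmax (else 10 microM top), DMSO ≤0.25%.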

[1] = second compound 0.1 µM, first compound 0.000949 µM
[2] = second compound 0.1 µM, first compound 0.003 µM
[3] = second compound 0.1 µM, first compound 0.00949 µM
[4] = second compound 0.1 µM, first compound 0.03 µM
[5] = second compound 0.1 µM, first compound 0.0949 µM
[6] = second compound 0.1 µM, first compound 0.3 µM
[7] = second compound 0.316 µM, first compound 0.000949 µM
[8] = second compound 0.316 µM, first compound 0.003 µM
[9] = second compound 0.316 µM, first compound 0.00949 µM
[10] = second compound 0.316 µM, first compound 0.03 µM
[11] = second compound 0.316 µM, first compound 0.0949 µM
[12] = second compound 0.316 µM, first compound 0.3 µM
[13] = second compound 1 µM, first compound 0.000949 µM
[14] = second compound 1 µM, first compound 0.003 µM
[15] = second compound 1 µM, first compound 0.00949 µM
[16] = second compound 1 µM, first compound 0.03 µM
[17] = second compound 1 µM, first compound 0.0949 µM
[18] = second compound 1 µM, first compound 0.3 µM
[19] = second compound 3.16 µM, first compound 0.000949 µM
[20] = second compound 3.16 µM, first compound 0.003 µM
[21] = second compound 3.16 µM, first compound 0.00949 µM
[22] = second compound 3.16 µM, first compound 0.03 µM
[23] = second compound 3.16 µM, first compound 0.0949 µM
[24] = second compound 3.16 µM, first compound 0.3 µM
[25] = second compound 10 µM, first compound 0.000949 µM
[26] = second compound 10 µM, first compound 0.003 µM
[27] = second compound 10 µM, first compound 0.00949 µM
[28] = second compound 10 µM, first compound 0.03 µM
[29] = second compound 10 µM, first compound 0.0949 µM
[30] = second compound 10 µM, first compound 0.3 µM
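Note: spheroids exposed to agents for seven days.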
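Throughout, for viability, T/C: percent of DMSO vehicle control luminescence viability.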

## CC[C@@]1(O)C(=O)OCc2c1cc1n(c2=O)Cc2cc3c(CN(C)C)c(O)ccc3nc2-1 + NC1CCC(NC2CC2c2ccccc2)CC1
Second compound 0.1 µM
  IC50: 4.87 nM
Second compound 0.316 µM
  IC50: 4.89 nM
Second compound 1 µM
  IC50: 4.35 nM
Second compound 3.16 µM
  IC50: 4.78 nM
Second compound 10 µM
  IC50: 4.55 nM
Second compound 0.1 µM, first compound 0.000316 µM
  viability, T/C: 100%
Second compound 0.1 µM, first compound 0.001 µM
  viability, T/C: 104%
Second compound 0.1 µM, first compound 0.00316 µM
  viability, T/C: 72.3%
Second compound 0.1 µM, first compound 0.01 µM
  viability, T/C: 12.8%
Second compound 0.1 µM, first compound 0.0316 µM
  viability, T/C: 7.11%
Second compound 0.1 µM, first compound 0.1 µM
  viability, T/C: 5.58%
Second compound 0.316 µM, first compound 0.000316 µM
  viability, T/C: 101%
Second compound 0.316 µM, first compound 0.001 µM
  viability, T/C: 97.2%
Second compound 0.316 µM, first compound 0.00316 µM
  viability, T/C: 72.9%
Second compound 0.316 µM, first compound 0.01 µM
  viability, T/C: 12.2%
Second compound 0.316 µM, first compound 0.0316 µM
  viability, T/C: 6.01%
Second compound 0.316 µM, first compound 0.1 µM
  viability, T/C: 4.82%
Second compound 1 µM, first compound 0.000316 µM
  viability, T/C: 97.3%
Second compound 1 µM, first compound 0.001 µM
  viability, T/C: 97.5%
Second compound 1 µM, first compound 0.00316 µM
  viability, T/C: 64.7%
Second compound 1 µM, first compound 0.01 µM
  viability, T/C: 11.7%
Second compound 1 µM, first compound 0.0316 µM
  viability, T/C: 6.84%
Second compound 1 µM, first compound 0.1 µM
  viability, T/C: 5.45%
Second compound 3.16 µM, first compound 0.000316 µM
  viability, T/C: 96.7%
Second compound 3.16 µM, first compound 0.001 µM
  viability, T/C: 94.9%
Second compound 3.16 µM, first compound 0.00316 µM
  viability, T/C: 70.5%
Second compound 3.16 µM, first compound 0.01 µM
  viability, T/C: 13.2%
Second compound 3.16 µM, first compound 0.0316 µM
  viability, T/C: 6.25%
Second compound 3.16 µM, first compound 0.1 µM
  viability, T/C: 4.49%
Second compound 10 µM, first compound 0.000316 µM
  viability, T/C: 104%
Second compound 10 µM, first compound 0.001 µM
  viability, T/C: 105%
Second compound 10 µM, first compound 0.00316 µM
  viability, T/C: 67%
Second compound 10 µM, first compound 0.01 µM
  viability, T/C: 13.1%
Second compound 10 µM, first compound 0.0316 µM
  viability, T/C: 6.18%
Second compound 10 µM, first compound 0.1 µM
  viability, T/C: 4.49%

## CCc1c2c(nc3ccc(O)cc13)-c1cc3c(c(=O)n1C2)COC(=O)[C@]3(O)CC + NC1CCC(NC2CC2c2ccccc2)CC1
Second compound 0.1 µM
  IC50: < 0.949 nM
Second compound 0.316 µM
  IC50: < 0.949 nM
Second compound 1 µM
  IC50: < 0.949 nM
Second compound 3.16 µM
  IC50: < 0.949 nM
Second compound 10 µM
  IC50: < 0.949 nM
[1]
  viability, T/C: 4.35%
[2]
  viability, T/C: 3.31%
[3]
  viability, T/C: 1.16%
[4]
  viability, T/C: 0.45%
[5]
  viability, T/C: 0.43%
[6]
  viability, T/C: 0.63%
[7]
  viability, T/C: 5.2%
[8]
  viability, T/C: 4.07%
[9]
  viability, T/C: 0.9%
[10]
  viability, T/C: 0.54%
[11]
  viability, T/C: 0.4%
[12]
  viability, T/C: 0.58%
[13]
  viability, T/C: 5.26%
[14]
  viability, T/C: 3.09%
[15]
  viability, T/C: 0.97%
[16]
  viability, T/C: 0.59%
[17]
  viability, T/C: 0.52%
[18]
  viability, T/C: 0.46%
[19]
  viability, T/C: 4.43%
[20]
  viability, T/C: 3.74%
[21]
  viability, T/C: 0.95%
[22]
  viability, T/C: 0.3%
[23]
  viability, T/C: 0.53%
[24]
  viability, T/C: 1.4%
[25]
  viability, T/C: 4.7%
[26]
  viability, T/C: 4.29%
[27]
  viability, T/C: 1.07%
[28]
  viability, T/C: 0.67%
[29]
  viability, T/C: 1.68%
[30]
  viability, T/C: 0.55%

## Nc1ccn(C2OC(CO)C(O)C2(F)F)c(=O)n1 (stereo not given) + NC1CCC(NC2CC2c2ccccc2)CC1
Second compound 0.1 µM
  IC50: 50.9 nM
Second compound 0.316 µM
  IC50: 55.5 nM
Second compound 1 µM
  IC50: 56.2 nM
Second compound 3.16 µM
  IC50: 50.1 nM
Second compound 10 µM
  IC50: 43.5 nM
[1]
  viability, T/C: 105%
[2]
  viability, T/C: 104%
[3]
  viability, T/C: 96.8%
[4]
  viability, T/C: 68.4%
[5]
  viability, T/C: 28.4%
[6]
  viability, T/C: 16.3%
[7]
  viability, T/C: 105%
[8]
  viability, T/C: 98.8%
[9]
  viability, T/C: 96.2%
[10]
  viability, T/C: 79.7%
[11]
  viability, T/C: 24.2%
[12]
  viability, T/C: 11.2%
[13]
  viability, T/C: 95.3%
[14]
  viability, T/C: 97.2%
[15]
  viability, T/C: 90.1%
[16]
  viability, T/C: 74.8%
[17]
  viability, T/C: 29.5%
[18]
  viability, T/C: 12.6%
[19]
  viability, T/C: 104%
[20]
  viability, T/C: 96.6%
[21]
  viability, T/C: 82.6%
[22]
  viability, T/C: 69.5%
[23]
  viability, T/C: 28.8%
[24]
  viability, T/C: 12.8%
[25]
  viability, T/C: 101%
[26]
  viability, T/C: 98%
[27]
  viability, T/C: 83.7%
[28]
  viability, T/C: 63.2%
[29]
  viability, T/C: 26%
[30]
  viability, T/C: 10.4%

From PubChem BioAssay AID1918937 (Molecular Pharmacology Branch, DTP, NCI, 2023)
